ChEMBL document CHEMBL4483862, “Open-source discovery of chemical leads for next-generation chemoprotective antimalarials” (2018)

System: Plasmodium berghei
Assay: Luciferase/luciferin-expressing antifolate-resistant parasites were used to infect a culture of HepG2 cells that were pre-incubated with compounds. Infected hepatocytes emit light due to the luciferase reaction. Assay results are presented as the percent inhibition of light emission compared to control. […]
Format: functional
Details: sporozoite; for IC90: read-out: LUCIFERASE INFECTION ASSAY - IC90
[1] = read-out: LUCIFERASE INFECTION ASSAY - IC50

| Structure (SMILES) | IC50 [1] [µM] | IC90 [µM] | other results |
| --- | --- | --- | --- |
| Cc1ccccc1C(=O)N1CCC(C(=O)Oc2ccc(Cl)c3ccccc23)CC1 | > 10 | > 10 |  |
| Cc1ccc(COC(=O)c2cccc3c(=O)c(C)c(-c4ccccc4)oc23)cc1 | > 10 | > 10 |  |
| Cc1ccc(NC(=S)Nc2ccc(Cl)cc2)cc1F | > 11.2 | > 11.2 |  |
| CCS(=O)(=O)N1CCC(C(=O)Nc2nc3ccc(Oc4ccccc4)cc3s2)CC1 |  | > 10 | IC50 (HEPG2TOX_HILL_SLOPE 0.324, HEPG2TOX_R_SQUARED 0.65, PBLUC_HILL_SLOPE 2.34, PBLUC_R_SQUARED 0.492, read-out: LUCIFERASE INFECTION ASSAY - IC50): 5.6 µM |
| O=C(Nc1ncccc1O)c1ccc(S(=O)(=O)NCCc2cccs2)cc1 | 0.134 | 0.176 |  |
| CC1CC(C)CN(Cc2nc(=O)c3c(-c4ccc(Cl)cc4)csc3[nH]2)C1 (stereo unspecified) |  | 6.66 | IC50 (FFLUC_HILL_SLOPE 12.3, FFLUC_R_SQUARED 0.735, PBLUC_HILL_SLOPE 4.47, PBLUC_R_SQUARED 0.339, read-out: LUCIFERASE INFECTION ASSAY - IC50): 4.07 µM |
| Cc1nn(-c2ccccc2)c2c1C(c1c[nH]c3ccccc13)N1C(=N2)C(N2CCN(c3ccc(F)cc3)CC2)=Nc2ccccc21 (stereo unspecified) | > 10 | > 10 |  |
| COc1ccc(CCC(=O)NNC(=O)c2ccc3ccccc3n2)cc1Br |  | 5.65 | IC50 (PBLUC_HILL_SLOPE 3.11, PBLUC_R_SQUARED 0.471, read-out: LUCIFERASE INFECTION ASSAY - IC50): 2.79 µM |
| O=[N+]([O-])c1cc(Cl)ccc1Oc1c(Cl)cccc1Cl | > 10.4 | > 10.4 |  |
| CCCc1cc(NCCCN2CCOCC2)n2nc(C)c(-c3ccccc3)c2n1 | > 8.39 | > 8.39 |  |
| CCOC(=O)CN(c1cc(OC(C)C)c(Cl)cc1Cl)S(=O)(=O)c1ccc(Cl)cc1 |  | > 6.86 | IC50 (HEPG2TOX_HILL_SLOPE 6.82, HEPG2TOX_R_SQUARED 0.403, PBLUC_HILL_SLOPE 1.36, PBLUC_R_SQUARED 0.622, read-out: LUCIFERASE INFECTION ASSAY - IC50): 3.13 µM |
| CCCN(CCC(=O)Nc1cccc(Cl)c1)CC1CC1 | > 11.2 | > 11.2 |  |
| N=C1C(c2nc3ccccc3[nH]2)C(=O)CN1NC(=O)Cn1nnc(-c2cccc(C(F)(F)F)c2)n1 (stereo unspecified) | > 10 | > 10 |  |
| O=C(/C=C/C1=C(N2CCOCC2)C(=C\c2ccc(Cl)cc2)/CC1)C(F)(F)F | > 10 | > 10 |  |
| COC(=O)c1cc([N+](=O)[O-])ccc1N1CCN(c2cc(C)nc(C(C)C)n2)CC1 | > 10 | > 10 |  |
| Fc1ccccc1-c1cnn2c(NCCc3ccccn3)ccnc12 |  | 0.681 | IC50 (FFLUC_HILL_SLOPE 1.74, FFLUC_R_SQUARED 0.803, PBLUC_HILL_SLOPE 0.998, PBLUC_R_SQUARED 0.825, read-out: LUCIFERASE INFECTION ASSAY - IC50): 0.0754 µM |
| COc1ccccc1CNC(=O)c1cc(Cl)ccc1OC | > 10.8 | > 10.8 |  |
| O=C(Cc1noc2ccccc12)Nc1ccc(C(=O)N2CCCC2)cc1 | > 10 | > 10 |  |
| N#Cc1ccc(C#CCOC(=O)c2ccc(Cl)cc2)cc1 |  | > 11.2 | IC50 (HEPG2TOX_HILL_SLOPE 9.79, HEPG2TOX_R_SQUARED 0.928, PBLUC_HILL_SLOPE 1.7, PBLUC_R_SQUARED 0.764, read-out: LUCIFERASE INFECTION ASSAY - IC50): 3.56 µM |
| O=C(COC(=O)c1c2c(nc3ccccc13)CCCC2)Nc1ccccc1 |  | > 10 | IC50 (HEPG2TOX_HILL_SLOPE 0.267, HEPG2TOX_R_SQUARED 0.55, read-out: LUCIFERASE INFECTION ASSAY - IC50): > 10 µM |
| CCOC(=O)c1c(C)[nH]c(N=Nc2cccc(C(F)(F)F)c2)c1C | > 10 | > 10 |  |
| CCCS(=O)(=O)/C(C#N)=N/Nc1cc(C(F)(F)F)cc(C(F)(F)F)c1 |  | 4.41 | IC50 (PBLUC_HILL_SLOPE 6.87, PBLUC_R_SQUARED 0.748, read-out: LUCIFERASE INFECTION ASSAY - IC50): 3.21 µM |
| Cc1c(Cl)cnc(NC(=O)CSc2nnc(-c3ccccc3)o2)c1Cl |  | 2.88 | IC50 (FFLUC_HILL_SLOPE 2.78, FFLUC_R_SQUARED 0.409, HEPG2TOX_HILL_SLOPE 3.93, HEPG2TOX_R_SQUARED 0.284, PBLUC_HILL_SLOPE 2.91, PBLUC_R_SQUARED 0.621, read-out: LUCIFERASE INFECTION ASSAY - IC50): 1.35 µM |
| COCc1cccc(-c2cc(-c3cccc4ccccc34)cnc2N)c1 |  | 1.23 | IC50 (HEPG2TOX_HILL_SLOPE 1.78, HEPG2TOX_R_SQUARED 0.808, PBLUC_HILL_SLOPE 16.4, PBLUC_R_SQUARED 0.784, read-out: LUCIFERASE INFECTION ASSAY - IC50): 1.08 µM |

| Structure (SMILES) | IC50 [1] [µM] | IC90 [µM] | other results |
| --- | --- | --- | --- |
| COc1ccc(/C=C2\CCCc3c2nc2ncnn2c3-c2ccc(OC)cc2)cc1 | > 10 | > 10 |  |
| CC(C)(C)C(=O)Nc1ccc([N+](=O)[O-])cc1C#N |  | 4.31 | IC50 (PBLUC_HILL_SLOPE 2.44, PBLUC_R_SQUARED 0.671, read-out: LUCIFERASE INFECTION ASSAY - IC50): 1.75 µM |
| CC(=O)c1ccc(-c2cnc3sc(NCCN4CCOCC4)nn23)s1 |  | > 8.74 | IC50 (PBLUC_HILL_SLOPE 1.89, PBLUC_R_SQUARED 0.43, read-out: LUCIFERASE INFECTION ASSAY - IC50): 5.97 µM |
| O=C(NNC(=O)c1cccs1)c1cncc(C#Cc2ccccc2)c1 | > 9.5 | > 9.5 |  |
| c1ccc(CN2CCOCC2)c(CNc2ncnc3sccc23)c1 |  | > 10 | IC50 (HEPG2TOX_HILL_SLOPE 7.26, HEPG2TOX_R_SQUARED 0.756, read-out: LUCIFERASE INFECTION ASSAY - IC50): > 10 µM |
| C=C(C)CC(NCc1ccco1)c1ccc(OC)cc1 (stereo unspecified) | 8.94 | > 12.2 |  |
| CS(=O)(=O)Nc1ccc(C(=N)NOC(=O)Nc2ccc(C(F)(F)F)cc2)cc1 | > 7.93 | > 7.93 |  |
| NC(COCc1ccccc1)c1csc(NC(=O)Nc2cccc(C(F)(F)F)c2)n1 (stereo unspecified) |  | > 7.56 | IC50 (HEPG2TOX_HILL_SLOPE 2.5, HEPG2TOX_R_SQUARED 0.677, PBLUC_HILL_SLOPE 2.37, PBLUC_R_SQUARED 0.435, read-out: LUCIFERASE INFECTION ASSAY - IC50): 5.16 µM |
| CN(C)C(S)=Nc1ccc(Cl)cc1 | > 15.4 | > 15.4 |  |
| CC1(C(=O)NCCC(F)(F)F)Cc2c(-c3ccc4c(c3)OCO4)ccnc2O1 (stereo unspecified) |  | 6.15 | IC50 (FFLUC_HILL_SLOPE 14.8, FFLUC_R_SQUARED 0.74, HEPG2TOX_HILL_SLOPE 2.73, HEPG2TOX_R_SQUARED 0.858, PBLUC_HILL_SLOPE 3.16, PBLUC_R_SQUARED 0.521, read-out: LUCIFERASE INFECTION ASSAY - IC50): 3.07 µM |
| Oc1c(C(c2ccc(Br)cc2)N2CCCC2)cc(Cl)c2cccnc12 (stereo unspecified) |  | 4.01 | IC50 (FFLUC_HILL_SLOPE 1.86, FFLUC_R_SQUARED 0.64, HEPG2TOX_HILL_SLOPE 1.66, HEPG2TOX_R_SQUARED 0.745, PBLUC_HILL_SLOPE 3.81, PBLUC_R_SQUARED 0.789, read-out: LUCIFERASE INFECTION ASSAY - IC50): 2.25 µM |
| O=C(COc1ccccc1SCc1ccc(Cl)cc1)NNC(=O)c1ccccc1Cl | > 7.15 | > 7.15 |  |
| Cc1ccc(Cn2nc(C)c3cc(C(=O)N4CCN(c5ncccn5)CC4)sc32)cc1 | > 10 | > 10 |  |
| COc1cc2c(cc1NC(=O)C(C)N1CCC(C(N)=O)CC1)oc1ccccc12 (stereo unspecified) |  | > 10 | IC50 (PBLUC_HILL_SLOPE 1.06, PBLUC_R_SQUARED 0.647, read-out: LUCIFERASE INFECTION ASSAY - IC50): 1.32 µM |
| O=C(c1cc(-c2cccc3ccccc23)nc2ccccc12)N1CCN(c2ncccn2)CC1 |  | > 10 | IC50 (PBLUC_HILL_SLOPE 2.78, PBLUC_R_SQUARED 0.395, read-out: LUCIFERASE INFECTION ASSAY - IC50): 8.3 µM |
| Clc1cccc(CNc2ncnc3sccc23)c1 |  | 9.83 | IC50 (HEPG2TOX_HILL_SLOPE 2.22, HEPG2TOX_R_SQUARED 0.937, PBLUC_HILL_SLOPE 2.28, PBLUC_R_SQUARED 0.461, read-out: LUCIFERASE INFECTION ASSAY - IC50): 3.76 µM |
| O=C(/C=C/c1ccco1)Nc1ccc(Cl)cc1Cl | 9.77 | 11.1 |  |
| CCCc1cc(N2CCN(C)CC2)n2ncc(-c3ccccc3)c2n1 | 2.71 | > 9.84 |  |
| Cn1cc(-c2cnc3cnc(-c4ccncc4)cn23)cn1 |  | > 11.9 | IC50 (HEPG2TOX_HILL_SLOPE 1.93, HEPG2TOX_R_SQUARED 0.473, PBLUC_HILL_SLOPE 0.98, PBLUC_R_SQUARED 0.306, read-out: LUCIFERASE INFECTION ASSAY - IC50): 10.1 µM |
| c1ccc2c3c(ccc2c1)CCc1ccc2ccccc2c1-3 |  | > 11.8 | IC50 (FFLUC_HILL_SLOPE 12.1, FFLUC_R_SQUARED 0.622, read-out: LUCIFERASE INFECTION ASSAY - IC50): > 11.8 µM |
| O=C(CCn1c(-c2ccc(F)cc2)n[nH]c1=S)Nc1nc2c(s1)CCCC2 |  | > 10 | IC50 (PBLUC_HILL_SLOPE 2.35, PBLUC_R_SQUARED 0.213, read-out: LUCIFERASE INFECTION ASSAY - IC50): 4.33 µM |
| Cc1cc([N+](=O)[O-])cc(S(=O)(=O)N(Cc2ccc(C(=O)NC3CC3)cc2)C2CC2)c1C |  | 2.18 | IC50 (PBLUC_HILL_SLOPE 2.2, PBLUC_R_SQUARED 0.808, read-out: LUCIFERASE INFECTION ASSAY - IC50): 0.801 µM |
| Fc1ccc2c(c1)C(Nc1nc(-c3cccnc3)nc3ccccc13)CCS2 (stereo unspecified) |  | 4.27 | IC50 (FFLUC_HILL_SLOPE 1.8, FFLUC_R_SQUARED 0.403, PBLUC_HILL_SLOPE 13.2, PBLUC_R_SQUARED 0.43, read-out: LUCIFERASE INFECTION ASSAY - IC50): 3.62 µM |
| CC(=O)NCCC(=O)N(Cc1ccccc1)c1nc2c(C(C)C)cccc2s1 |  | 6.02 | IC50 (PBLUC_HILL_SLOPE 286, PBLUC_R_SQUARED 0.442, read-out: LUCIFERASE INFECTION ASSAY - IC50): 5.98 µM |
